Measurements from patent US6436903B1, “Immunomodulating compounds comprising d-isomers of amino acids” (Stanford University (Board of Trustees of the Leland …, priority 1996, dated 2002).
Entries after “also recorded” stand apart in the source; their conditions may differ. No end group written: not given here.

Experiments:
[1] = system: CD8+ CTL line specific for HLA-A2; assay: Cytotoxicity assay: inhibition of lysis by established CTL (51Cr-labeled JY targets); assay type: cell-based, human
Method: CTL assays were performed as described using ^51Cr-labeled EBV transformed B cells expressing the appropriate HLA allele as targets [[…] et al., J. Immunol. (1982) 129:2001]. In the present protocol, a CD8+ CTL line specific for HLA-A2 was tested in the presence of various peptides for lysis of ^51Cr-labeled JY targets. Peptides were added to a final concentration of 100 μg/ml at the initiation of the 4 h assay. Each determination was the mean of triplicate wells.

purified T cells = assay: Proliferation of purified T cells stimulated by immobilized anti-CD3; assay type: cell-based, human; conditions: immobilized anti-CD3 antibody
Method: PBL were isolated from normal donors by centrifugation over Ficoll-Hypaque. In some cases, T cells were purified from this preparation using the method of Secrist et al. [J Exp. Med. (1993) 178:2123]. Briefly, cells isolated over Ficoll-Hypaque were incubated for 1 hour in Petri dishes. Nonadherent cells were passed over a nylon wool column and the resulting population was >90% CD3+ by FACS analysis. CD8+ CTL lines specific for HLA-A2, B7, B27, B48, or Cw4 were generated and maintained in long-term culture as previously described [Buxton et al., J Exp. Med. (1992) 175:809; Wesley et al., Hum. Immunol. (1993) 36:149]. Jurkat E6-1 and the T cell receptor negative Jurkat, JRT3-T3.5, were obtained from the American Type Culture Collection (ATCC; Rockville, Md.). […]
10^5 cells were added to microtiter wells that had been coated with anti-CD3 (Sigma, St. Louis, Mo.) at 5 μg/ml. […] Plates were harvested on a PHD Cell Harvester 24 hours later and [^3H]-thymidine incorporation determined by scintillation counting.
Peptides were evaluated for effects on the proliferation of purified T cells stimulated by immobilized anti-CD3 antibody. […]

rat splenocytes = assay: Differentiation of rat splenocytes into allospecific CTL in vitro; assay type: cell-based
draining lymph nodes = assay: Lymph node proliferation assay (footpad challenge with allogeneic versus syngeneic splenocytes); assay type: in vivo, rat; conditions: treated within 24 hours of footpad injection
Method: ACI or PVG rats (200 g) were injected intravenously with peptides dissolved in saline on day 0. On the indicated days thereafter, the left rear footpads of the rats were injected with 5×10^6 splenocytes from a syngeneic donor and the right rear footpads with 5×10^6 splenocytes from an allogeneic Lew donor (Moeller etal. Transplantation (1993)55:650). See also Twist and Barnes Transplantation (1973) 15:182; Fanslow et al. Science (1990) 248:739). Seven days after the footpad injection, the animals were sacrificed and the popliteal lymph nodes removed. A single cell suspension was prepared, and the cell number determined using a hemocytometer.
PVG or ACI rats (3 per group) were given a single intravenous injection of 2 mg of each of the four peptides or saline. On the day of treatment, or on days 1, 7, or 10 after treatment, the right footpads were injected with 5×10^6 syngeneic splenocytes while the left footpads were injected with 5×10^6 allogeneic Lew splenocytes. Seven days after the footpad injections, the draining lymph nodes were removed, a single cell suspension was prepared, and the cell number determined.

[2] = system: Lew specific CTL precursors in splenocytes; assay: Limiting dilution assay for CTL precursors in splenocytes of treated rats; assay type: in vivo, rat; conditions: treated on the day of splenectomy or 24 hours earlier
Method: The effect of peptides on CTL precursor frequencies in splenocytes was tested as follows. Limiting dilution analysis was carried out essentially as described (Moeller et al. 1993, supra; Skinner and Marbrook. J. Exp. Med. (1976) 143:1562). Briefly, spleens were removed from naive animals or from animals that had received an allograft a minimum of 60 days earlier and then teased into a single cell suspension. Responder cells were plated from 1000 to 40,000 cells per well (24 replicates per concentration) into round bottom microliter wells in RPMI 1640 supplemented with 10% fetal bovine serum (Hyclone, Logan, Utah), 2 mM L-glutamine, 5×10^5M μ-mercaptoethanol, 100 U/ml penicillin, 100 μg/ml streptomycin, 20% supernatant from Concanavalin A activated rat spleen cells, and 50 μM α-methyl mannoside. Then, 5×10^5 irradiated (2000 rads) stimulator cells were added to each well and plates were incubated in a humidified CO2 incubator. […] Aliquots of supernatant were counted in a gamma counter and CTL precursor frequency determined by linear regression (Skinner and Marbrook. 1976, supra). […]
PVG (RT1^c) or ACI (RT1^a) rats were treated with a single intravenous injection of saline or 2 mg of A2.75-84, B7.75-84, B2702.75-84, or RT1^a.75-84 peptide. […] CTL precursor frequency was determined by linear regression analysis.

[3] = system: abdominal heterotopic heart allografts; assay: Cardiac allograft survival in rats (Lew heart into ACI recipients); assay type: in vivo, rat; conditions: peptide in the two weeks before or 4 days after surgery plus CsA on days 0-4, rats
Source text: Vascularized cardiac allografts were heterotypically transplanted into the abdomen of recipient rats using a modification of the technique of Ono and Lindsay (Ono and Lindsey J. Thorac. Cardiovasc. Surg. (1969) 57:225). Abdominal allografts were palpated on a daily basis to assess graft function, and rejection was deemed complete when palpable ventricular contractions ceased.
Cyclosporin A (CsA, Sandoz Pharmaceuticals Corporation, Base, Switzerland) dissolved in olive oil was given orally through a gavage tube at the indicated dose. Peptides were dissolved in water or saline and given intravenously or by gavage as indicated.
Since the B7.75-84 and B2702.75-84 peptides blocked cellular immunity in vivo, we examined their effects on allograft survival in rats. ACI (RT1^a) recipients were given abdominal heterotopic heart allografts from Lew donors (Moeller et al. 1993, supra; Ono and Lindsey. 1969, supra). Graft function was monitored by daily abdominal palpation, and rejection was scored as complete when the palpable ventricular contractions ceased.

Substance | potency relative to B2702.75-84, based on the concentration required to achieve 50% inhibition of cytotoxicity [1] | inhibition of proliferation of purified T cells (3H-thymidine incorporation) (purified T cells) | blocking of differentiation of rat splenocytes into allospecific CTL (rat splenocytes) | ratio of the number of cells recovered, allogeneic versus syngeneic side (draining lymph nodes) | inhibition of lysis by established CTL ([1]; HLA-A2 specific CD8+ CTL, 51Cr-labeled JY targets, peptide 100 μg/ml, 4 h assay) | precursor frequency of Lew specific cells compared with saline [2] | allograft rejection under peptide in combination with CsA [3]
WDRETQICKAKAQTDRENLRIALRY [Peptide B2702.60-84] | approximately 5 fold | – | – | – | – | – | –
B2702.75-84: synthetic peptide, HLA-B2702 residues 75-84, sequence RENLRIALRY [Peptide B2702.75-84] | – | do not | blocked the differentiation of rat splenocytes into allospecific CTL in vitro | A similar ratio | inhibited lysis by established CTL | The same frequency | rejected similarly to allografts in animals treated with CsA alone; also recorded: did not show prevention of allograft rejection
